From US5409932A, “Piperazine-substituted pyrroloanthracenes” (Bayer AG, priority 1993, dated 1995)

System: human T cells
Assay: Inhibition of 5-HT-dependent T Cell Proliferation
Format: cell-based
Details: Homo sapiens, T-cell, monocyte-free human T cells stimulated with PWM and 5-HT; 3H-thymidine incorporation; 7 days
Source text: The in vitro activity of the compounds according to the invention results from their capability to inhibit T cell proliferation, which is previously stimulated by serotonin.
Inhibition of 5-HT-dependent T Cell Proliferation
Peripheral mononuclear blood cells (PBMC) are obtained from the buffy coat of the blood of healthy subjects. After isolation by means of isolymph gradients (Pharmacia), the PBMC are washed twice and used directly. Purified T cells are obtained by E rosette formation with sheep erythrocytes [cf. Blue, M.-L. , J. F. Daley, H. Levine, K. A. Craig and S. F. Schlossmann, 1986, Biosynthesis and surface expression of T8 by peripheral blood T4+cells in vitro, J. Immunol. 137, 1202]. Monocytes are partially removed by adhesion to tissue culture plates or flasks. PBMC, T cells or purified T cells (depleted in monocytes) at 5×10^5 /ml, 100 μl/well are cultured in RPMI 1640 medium with 10% fetal calf serum (GIBCO) and L-glutamine in 96-well microculture plates (Becton--Dickinson)under a 5% CO2 atmosphere at 37° C. for 7 days. The cultures are treated with 1 μCi of ^3 H-thymidine for 6 h on the 7th day and collected on filter paper, and the incorporated radioactivity is determined by means of liquid scintillation counting.
The test substances are dissolved in 10 mM HCl in order to achieve a final concentration of 1 mM in each case. The compounds are diluted serially 3×with medium in order to obtain a final concentration between 33 μM-0.1 μM. PWM (1:200, pokeweed mitogen) and 5-HT (100 μm, serotonin), which contain the test substances, are added to monocyte-free human T cells. The positive control (maximum proliferation) is obtained from cultures containing T cells, PWM and 5-HT. The negative control (minimal proliferation) is obtained from cultures containing T cells and PWM without 5-HT. The inhibitory activity of the test substances is expressed as the IC50 in μM. (see also WO 92/04015)

Row | Structure (SMILES) | IC50 [µM]
1 | Fc1ccccc1N1CCN(CCCN2CC3C4c5ccccc5C(c5ccccc54)C3C2)CC1 (centres unmarked) [Example 83] | 7
2 | O=C1C2C(CN1CCCN1CCN(c3ccc(F)cc3)CC1)C1c3ccccc3C2(c2ccccc2)c2ccccc21 (centres unmarked) [Example 114] | 2
3 | FC(F)(F)c1cccc(N2CCN(CCCN3CC4C5c6ccccc6C(c6ccccc65)C4C3)CC2)c1 (centres unmarked) [Example 80] | 5
4 | COc1ccc(N2CCN(CCCN3CC4C5c6ccccc6C(c6ccccc65)C4C3)CC2)cc1OC (centres unmarked) [Example 93] | 10
5 | Cc1ccccc1N1CCN(CCCN2C(=O)C3C4c5ccccc5C(c5ccccc54)C3C2=O)CC1 (centres unmarked) [Example 19] | > 10
6 | O=C1C2C3c4ccccc4C(c4ccccc43)C2C(=O)N1CCCN1CCN(c2ccccc2F)CC1 (centres unmarked) [Example 18] | > 10
7 | CC12c3ccccc3C(c3ccccc31)C1C(=O)N(CCCN3CCN(c4ccc(F)cc4)CC3)C(=O)C12 (centres unmarked) [Example 31] | > 10
8 | Cc1ccc(N2CCN(CCCN3CC4C5c6ccccc6C(c6ccccc65)C4C3)CC2)cc1C (centres unmarked) [Example 92] | 2
9 | ClC12c3ccccc3C(c3ccccc31)C1CN(CCCN3CCN(c4ccccc4)CC3)CC12 (centres unmarked) [Example 99] | 8
10 | CCc1ccccc1N1CCN(CCCN2C(=O)C3C4c5ccccc5C(c5ccccc54)C3C2=O)CC1 (centres unmarked) [Example 20] | > 10
11 | CC12c3ccccc3C(c3ccccc31)C1CN(CCCN3CCN(c4ccccc4)CC3)CC12 (centres unmarked) [Example 94] | 7
12 | CC12c3ccccc3C(c3ccccc31)C1CN(CCCN3CCN(c4ccc(F)cc4)CC3)CC12 (centres unmarked) [Example 96] | > 10
13 | O=C1C2C3c4ccccc4C(CCl)(c4ccccc43)C2C(=O)N1CCCN1CCN(c2ccc(F)cc2)CC1 (centres unmarked) [Example 48] | 10
14 | CC12CN(CCCN3CCN(c4ccc(F)cc4)CC3)CC1C1c3ccccc3C2c2ccccc21 (centres unmarked) [Example 105] | 2
15 | Cc1ccc(N2CCN(CCCN3CC4C5c6ccccc6C(c6ccccc65)C4C3)CC2)cc1 (centres unmarked) [Example 76] | 2
16 | NCC12c3ccccc3C(c3ccccc31)C1CN(CCCN3CCN(c4ccc(F)cc4)CC3)CC12 (centres unmarked) [Example 101] | 1
17 | C=CC12c3ccccc3C(c3ccccc31)C1C(=O)N(CCCN3CCN(c4ccc(F)cc4)CC3)C(=O)C12 (centres unmarked) [Example 37] | > 10
18 | Cc1ccccc1N1CCN(CCCCN2C(=O)C3C4c5ccccc5C(c5ccccc54)C3C2=O)CC1 (centres unmarked) [Example 8] | > 10
19 | Clc1ccc(N2CCN(CCCCN3CC4C5c6ccccc6C(c6ccccc65)C4C3)CC2)cc1 (centres unmarked) [Example 67] | 2
20 | O=C1C2C(CN1CCCN1CCN(c3ccc(F)cc3)CC1)C1(Cl)c3ccccc3C2(Cl)c2ccccc21 (centres unmarked) [Example 112] | 5
21 | O=C1C2C3c4ccccc4C(CCl)(c4ccccc43)C2CN1CCCN1CCN(c2ccc(F)cc2)CC1 (centres unmarked) [Example 113] | 2
22 | O=C1C2C3c4ccccc4C(c4ccccc43)C2C(=O)N1CCCN1CCN(c2ccc(C(F)(F)F)cc2)CC1 (centres unmarked) [Example 10] | > 10
23 | COc1ccccc1N1CCN(CCCN2CC3C4c5ccccc5C(c5ccccc54)C3C2)CC1 (centres unmarked) [Example 86] | 3
24 | O=C1C2C3c4ccccc4C(CO)(c4ccccc43)C2C(=O)N1CCCN1CCN(c2ccccc2)CC1 (centres unmarked) [Example 32] | > 10
25 | COC(OC)C12c3ccccc3C(c3ccccc31)C1CN(CCCN3CCN(c4ccc(F)cc4)CC3)CC12 (centres unmarked) [Example 107] | 1
26 | Clc1cccc(N2CCN(CCCN3CC4C5c6ccccc6C(c6ccccc65)C4C3)CC2)c1 (centres unmarked) [Example 78] | 5
27 | O=C1C2C(C(=O)N1CCCN1CCN(c3ccc(F)cc3)CC1)C1(Br)c3ccccc3C2(Br)c2ccccc21 (centres unmarked) [Example 45] | > 10
28 | Cc1ccccc1N1CCN(CCCN2CC3C4c5ccccc5C(c5ccccc54)C3C2)CC1 (centres unmarked) [Example 84] | 2
29 | O=C1C2C3c4ccccc4C(c4ccccc43)C2C(=O)N1CCCN1CCN(c2ccc(F)cc2)CC1 (centres unmarked) [Example 1, 13-{3-[4-(4-Fluorophenyl)piperazin-1-yl]-propyl}-9,10-dihydro-9,10[3', 4']-pyrroloanthracene-12,14(11H,15H) dione] | > 10
